From patent US12673942B2, “Azabicyclyl-substituted heterocycles as fungicides” (Bayer Aktiengesellschaft, priority 2020, dated 2026)

Assay: Measurement of Log P values by HPLC on reversed phase columns (EEC directive 79/831 Annex V.A8)
Assay type: physicochemical
Protocol: Measurement of Log P values as provided herein was performed according to EEC directive 79/831 Annex V.A8 by HPLC (High Performance Liquid Chromatography) on reversed phase columns with the following methods: • ^[a] Log P value is determined by measurement of LC-UV, in an acidic range, with 0.1% formic acid in water and acetonitrile as eluent (linear gradient from 10% acetonitrile to 95% acetonitrile). • ^[b] Log P value is determined by measurement of LC-UV, in a neutral range, with 0.001 molar ammonium acetate solution in water and acetonitrile as eluent (linear gradient from 10% acetonitrile to 95% acetonitrile). • ^[c] Log P value is determined by measurement of LC-UV, in an acidic range, with 0.1% phosphoric acid and acetonitrile as eluent (linear gradient from 10% acetonitrile to 95% acetonitrile).
If more than one Log P value is available within the same method, all the values are given and separated by “+”. […]

[1] = method [a]: LC-UV, acidic range, 0.1% formic acid in water and acetonitrile as eluent
[2] = method [b]: LC-UV, neutral range, 0.001 molar ammonium acetate solution in water and acetonitrile as eluent

SMILES	chromatographic logP [1]	chromatographic logP [2]	LogP [1]
Cc1ccc(C[C@H](CON2C(=O)c3ccccc3C2=O)NC(=O)c2c(Oc3cccc(C4CC4)c3F)cnc3ccccc23)c(C)c1 (racemic) [Compound 3-04]	4.96		
Cc1ccc(C[C@H](CCl)NC(=NO)c2c(Oc3cccc(C4CC4)c3F)cnc3ccccc23)c(Cl)c1 (racemic) [Compound 12-02]	4.93		
Cc1ccc(C[C@H](CON2C(=O)c3ccccc3C2=O)NC(=O)c2c(Oc3cccc(C(F)(F)F)c3)cnc3ccccc23)c(C)c1 (racemic) [Compound 3-02]	4.72		
Cc1ccc(C[C@H](CON2C(=O)c3ccccc3C2=O)NC(=O)c2c(Oc3cccc(Cl)c3F)nnc3c2CCCC3)c(C)c1 (racemic) [Compound 3-10]	4.47		
Cc1ccc(C[C@H](CON)NC(=O)c2c(Oc3cccc(C(F)(F)F)c3)cnc3ccccc23)c(C)c1 (racemic) [Compound 4-02]	3.17		
Cc1ccc(C[C@H](CCl)NC(=O)c2c(Oc3cccc(Br)c3F)cnc3ccccc23)c(Cl)c1 (racemic) [Compound 10-04]	4.7		
Cc1ccc(C[C@H](N)CCl)c(C)c1 (racemic) [Compound 9-02]	1.24		
Cc1ccc(C[C@@H]2CON=C(c3c(Oc4cccc(Cl)c4F)nnc4c3CCCC4)N2)c(C)c1 (racemic) [Compound I-023]	3.91		
Cc1ccc(C[C@@H]2CON=C(c3c(Oc4cccc(C5CC5)c4F)cnc4ccccc34)N2)c(Cl)c1 (racemic) [Compound I-021]	4.55		
Cc1ccc(C[C@H](CON)NC(=O)c2c(Oc3cccc(Br)c3F)cnc3ccccc23)c(C)c1 (racemic) [Compound 4-07]	3.11		
Cc1ccc(C[C@@H]2CON=C(c3c(Oc4cccc(C)c4F)cnc4ccccc34)N2)c(C)c1 (racemic) [Compound I-020]	4.15		
Cc1ccc(C[C@H](CCl)NC(=NO)c2c(Oc3cccc(Br)c3F)cnc3ccccc23)c(Cl)c1 (racemic) [Compound 12-03]	4.62		
N[C@H](CCl)Cc1ccc(Br)cc1Cl (racemic) [Compound 9-03]	1.37		
Cc1ccc(C[C@H](CCl)N/C(=N\O)c2c(Oc3cccc(C4CC4)c3F)nnc3ccccc23)c(C)c1 (racemic) [Compound 12-01, N-[(2RS)-1-chloro-3-(2,4-dimethylphenyl)propan-2-yl]-3-(3-cyclopropyl-2-fluorophenoxy)-N′-hydroxycinnoline-4-carboximidamide]	4.7		
Cc1ccc(C[C@H](CON)NC(=O)c2c(Oc3cccc(C4CC4)c3F)cnc3ccccc23)c(C)c1 (racemic) [Compound 4-05]	3.31		
C#Cc1cccc(Oc2cnc3ccccc3c2C2=NOC[C@@H](Cc3ccc(C)cc3Cl)N2)c1 (racemic) [Compound I-025]	3.91		
Cc1ccc(C[C@H](CON)NC(=O)c2c(Oc3cccc(Br)c3F)nnc3c2CCCC3)c(C)c1 (racemic) [Compound 4-12]	2.75		
Cc1ccc(C[C@H](CON2C(=O)c3ccccc3C2=O)NC(=O)c2c(Oc3cccc(Br)c3F)nnc3c2CCCC3)c(C)c1 (racemic) [Compound 3-11]	4.51		
Cc1ccc(C[C@H](CCl)NC(=NO)c2c(Br)cnc3nccnc23)c(C)c1 (racemic) [Compound 15-01]	2.73		
O=C(O)c1c(Oc2cccc(C(F)(F)F)c2)nnc2c1CCC2 [Compound 1-23]	1.75	0.44	
Cc1ccc(C[C@H](CCl)NC(=O)c2c(Oc3cccc(C(F)(F)F)c3)cnc3ccoc23)c(C)c1 (racemic) [Compound 10-06]	4.55		
C#Cc1cccc(Oc2cnc3ccccc3c2C(=O)N[C@@H](CON)Cc2ccc(C)cc2Cl)c1 (racemic) [Compound 4-08]	2.87		
Cc1ccc(C[C@H](CON)NC(=O)c2c(Oc3cccc(Cl)c3F)nnc3c2CCCC3)c(C)c1 (racemic) [Compound 4-11]	2.7		
Cc1ccc(C[C@H](CON2C(=O)c3ccccc3C2=O)NC(=O)c2c(Oc3cccc(C(F)(F)F)c3)nnc3c2CCCC3)c(C)c1 (racemic) [Compound 3-09]	4.59		
Cc1ccc(C[C@H](CON)NC(=O)c2c(Oc3cccc(C4CC4)c3F)nnc3c2CCC3)c(C)c1 (racemic) [Compound 4-15]	2.83		
Cc1ccc(C[C@@H]2CON=C(c3c(Oc4cccc(C5CC5)c4F)nnc4c3CCC4)N2)c(C)c1 (racemic) [Compound I-029]	4.13		

SMILES	chromatographic logP [1]	chromatographic logP [2]	LogP [1]
C=Cc1cccc(Oc2cnc3ccccc3c2C(=O)N[C@@H](CON)Cc2ccc(C)cc2Cl)c1 (racemic) [Compound 4-09]	3.12		
Cc1ccc(C[C@H](CCl)NC(=O)c2c(Oc3cccc(C4CC4)c3F)cnc3ccccc23)c(Cl)c1 (racemic) [Compound 10-03]	5		
Cc1ccc(CC(CCl)NC(=O)c2c(Oc3cccc(C4CC4)c3F)nnc3ccccc23)c(C)c1 (racemic) [Compound 10-01, N-[(2RS)-1-chloro-3-(2,4-dimethylphenyl)propan-2-yl]-3-(3-cyclopropyl-2-fluorophenoxy)cinnoline-4-carboxamide]	4.73		
C#Cc1cccc(Oc2cnc3ccccc3c2C(=O)N[C@@H](CON2C(=O)c3ccccc3C2=O)Cc2ccc(C)cc2Cl)c1 (racemic) [Compound 3-07]	4.47		
Cc1ccc(C[C@@H](CON)NC(=O)c2c(Oc3cccc(C(F)(F)F)c3)nnc3cc(C)ccc23)c(C)c1 (racemic) [Compound 4-01]	3.42	3.62	3.51
Cc1ccc(C[C@H](CON2C(=O)c3ccccc3C2=O)NC(=O)c2c(Oc3cccc(Br)c3F)cnc3ccccc23)c(C)c1 (racemic) [Compound 3-06]	4.78		
Cc1ccc(CC(CCl)NC(=O)c2c(Oc3cccc(C(F)(F)F)c3)cnc3ccccc23)c(C)c1 (racemic) [Compound 10-02, N-[(2RS)-1-chloro-3-(2,4-dimethylphenyl)propan-2-yl]-3-[3-(trifluoro-methyl)phenoxy]quinoline-4-carboxamide]	4.81		
Cc1ccc(C[C@@H]2CON=C(c3c(Oc4cccc(C(F)(F)F)c4)nnc4c3CCC4)N2)c(C)c1 (racemic) [Compound I-027]	3.87		
Cc1ccc(C[C@H](CON)NC(=O)c2c(Oc3cccc(C(F)(F)F)c3)nnc3c2CCCC3)c(C)c1 (racemic) [Compound 4-10]	2.91		
C=Cc1cccc(Oc2cnc3ccccc3c2C2=NOC[C@@H](Cc3ccc(C)cc3Cl)N2)c1 (racemic) [Compound I-026]	4.19		
C=Cc1cccc(Oc2cnc3ccccc3c2C(=O)N[C@@H](CON2C(=O)c3ccccc3C2=O)Cc2ccc(C)cc2C)c1 (racemic) [Compound 3-05]	4.78		
Cc1ccc(C[C@H](CON2C(=O)c3ccccc3C2=O)NC(=O)c2c(Oc3cccc(C4CC4)c3F)nnc3c2CCC3)c(C)c1 (racemic) [Compound 3-14]	4.56		
Cc1ccc(C[C@@H]2CON=C(c3c(Br)cnc4nccnc34)N2)c(C)c1 (racemic) [Compound 7-01]	2.41		
C=Cc1cccc(Oc2cnc3ccccc3c2C(=O)N[C@@H](CON)Cc2ccc(C)cc2C)c1 (racemic) [Compound 4-06]	3.09		
Cc1ccc(CC(CON)NC(=O)c2c(Oc3cccc(Cl)c3)nnc3ccccc23)c(C)c1 (racemic) [Compound 4-03, N-[(2RS)-1-(aminooxy)-3-(2,4-dimethylphenyl)propan-2-yl]-3-(3-chloro-phenoxy)cinnoline-4-carboxamide]	2.8		
Cc1ccc(C[C@H](CCl)NC(=NO)c2c(Oc3cccc(C(F)(F)F)c3)cnc3ccoc23)c(C)c1 (racemic) [Compound 12-05]	4.4		
Cc1ccc(C[C@@H]2CON=C(c3c(Oc4cccc(C(F)F)c4)nnc4c3CCCC4)N2)c(C)c1 (racemic) [Compound I-028]	3.6		
Cc1ccc(C[C@H](CCl)NC(=NO)c2c(Oc3cccc(C(F)F)c3)cnc3ccccc23)c(Cl)c1 (racemic) [Compound 12-04]	4.28		
Cc1ccc(C[C@@H]2CON=C(c3c(Oc4cccc(C(F)F)c4)cnc4ccccc34)N2)c(Cl)c1 (racemic) [Compound I-031]	3.98		
Cc1ccc(C[C@@H]2CON=C(c3c(Oc4cccc(Br)c4F)nnc4c3CCCC4)N2)c(C)c1 (racemic) [Compound I-024]	4.01		
Cc1ccc(C[C@@H]2CON=C(c3c(Oc4cccc(C(F)(F)F)c4)nnc4c3CCCC4)N2)c(C)c1 (racemic) [Compound I-022]	3.99		
Cc1ccc(C[C@H](CON2C(=O)c3ccccc3C2=O)NC(=O)c2c(Oc3cccc(C(F)F)c3)nnc3c2CCCC3)c(C)c1 (racemic) [Compound 3-13]	4.13		
Cc1ccc(CC(CON2C(=O)c3ccccc3C2=O)NC(=O)c2c(Oc3cccc(Cl)c3)nnc3ccccc23)c(C)c1 (racemic) [Compound 3-01, 3-(3-chlorophenoxy)-N-{(2RS)-1-(2,4-dimethylphenyl)-3-[(1,3-dioxo-1,3-dihydro-2H-isoindol-2-yl)oxy]propan-2-yl}cinnoline-4-carboxamide]	4.49		
Cc1ccc(C[C@H](CON)NC(=O)c2c(Oc3cccc(C(F)(F)F)c3)nnc3c2CCC3)c(C)c1 (racemic) [Compound 4-13]	2.78		
C=Cc1cccc(Oc2cnc3ccccc3c2C(=O)N[C@@H](CON2C(=O)c3ccccc3C2=O)Cc2ccc(C)cc2Cl)c1 (racemic) [Compound 3-08]	4.71		
